Our source for the AC50 values is paper PMC7822874, “Chemoprotective antimalarials identified through quantitative high-throughput screening of Plasmodium blood and liver stage parasites” (Scientific Reports, 2021).

For the experiment, the system named is Plasmodium falciparum Dd2 asexual blood stage parasites. Briefly: microbe, parasite or virus in culture. Further details: species or system Plasmodium falciparum Dd2 in human erythrocytes; single determination (one 11-point concentration-response curve). To be noted: Plasmodium falciparum, DD2, Erythrocyte, 72 h; read-out: AC50.
A word on the AC50: it is the concentration giving half of the maximal activity seen. For the compound `O[C@]1(c2ccccc2)CCN(Cc2ccco2)C[C@H]1N1CCCC1` [NCGC00442602-01], the AC50 is 8.41 µM. Consider `O=C(NCc1ccco1)c1cc(-c2ccncc2)nc2ccccc12` [MLS000046192-01], for which the AC50 is 5.96 µM. For `COc1ccc(-c2cc(-c3ccc(N4CCOCC4)nc3)cn3cncc23)cc1` [NCGC00412184-01], the half-maximal activity concentration (AC50) came to 7.69 µM. For `O[C@]1(c2ccccc2)CCN(Cc2ccncc2)C[C@H]1N1CCCC1` [NCGC00442600-01] the value was 9.44 µM. With `CCOc1cc(C2CC(=O)NC3=C2C(=O)C(C(=O)OC)C(C)C3)cc(Br)c1O` (stereo not drawn) [MLS000090952-01], the AC50 is 6.68 µM. Next, `CC(=O)Oc1ccc2ccccc2c1C(NC(=O)C(C)C)c1cccc([N+](=O)[O-])c1` (stereo not drawn) [MLS000526079-01]: 16.8 µM. Turning to `COc1cc(C)ccc1OCCSc1nc2ccc(NC(=O)c3cccs3)cc2s1` [NCGC00118564-01], the AC50 turned out to be 13.3 µM. As to `O=C(NCc1ccc(N2CCCC2)cc1)C1CCCN(c2cnn(Cc3ccccc3)c(=O)c2)C1` (stereo not drawn) [NCGC00470327-01], the AC50 was 10.6 µM.

Consider `O=C1NCN(Cc2ccc(Cl)cc2)C12CCN(CC1CC1)CC2` [NCGC00478768-01], for which the AC50 amounted to 9.68 µM. For `O=C(Nc1sc2c(c1C(=O)NCc1ccco1)CCCC2)c1cc(=O)c2ccccc2o1` [NCGC00115806-01] the value was 10.6 µM; for `CCc1ccc(CN2CCN(Cc3cc(Br)ccc3O)CC2)cc1` [MLS000673664-01], 2.11 µM. Next, `CCN(C(=O)Cn1c(=O)n(Cc2ccc3c(c2)OCO3)c(=O)c2ccc(C(=O)NC3CCCCC3)cc21)c1cccc(C)c1` [NCGC00108796-01]: 6.68 µM; `Cc1ccc(NC(=O)N2CCC(N3C(=O)C4(CCCCC4)C3c3ccncc3)CC2)cc1C` (stereo not drawn) [NCGC00461123-01]: 7.5 µM. Next, `O=C(C[n+]1c2n(c3ccccc31)CC(O)CS2)c1ccccc1` (stereo not drawn) [MLS000687555-01]: 10.6 µM; `COC(=O)c1ccc2nc(CO[C@H]3CN(Cc4cn(C)c5ccccc45)C[C@H]3F)[nH]c2c1` [NCGC00392963-01]: 13.3 µM. Consider `NC(Cc1ccccc1)C(=O)N1CCC2(CC1)CN(C(=O)c1ccc(Cl)cc1)CCO2` (stereo not drawn) [NCGC00378158-01], for which the AC50 was found to be 0.841 µM. Next, `C#CCN(C)C(=O)C[C@@H]1c2nc(NC(=O)c3ccc(OC)cc3)sc2C[C@@H]2[C@](C)(CO)[C@H](O)CC[C@]21C` [NCGC00394313-01]: 2.66 µM; `COc1ccc(NC(=O)c2c(C)oc3ccc(O)c(CN4CCCC(C)C4)c23)cc1Cl` (stereo not drawn) [NCGC00115530-01]: 0.944 µM.

For the compound `CCCOc1cccc(C2c3c(oc4cc(C)c(C)cc4c3=O)C(=O)N2CCCN2CCOCC2)c1` (stereo not drawn) [NCGC00101917-01], the AC50 was 13.3 µM. For `Cc1ccc(Cl)cc1N1CCN(C(=O)c2ccc3c(c2)N(Cc2ccccc2F)C(=O)c2ccccc2[S+]3(=O)[O-])CC1` [NCGC00109582-01], the AC50 was 5.31 µM. In the case of `O=C(NCCc1c[nH]c2ccccc12)[C@@H]1C[C@H]2C(=O)NCCCCCCN(C(=O)c3ccco3)[C@H]2C1` [NCGC00465014-01], the AC50 turned out to be 10.6 µM.

In the case of `Cc1ccc(C)c(C(=O)N2CCC3(CC2)NC(c2ccc(Cl)cc2)=NO3)c1` [NCGC00447013-01], the AC50 is 9.44 µM. Next, `COc1ccc(-c2nnc(C[C@@H]3C[C@@H](C(C)C)[C@H](CNCc4cccnc4)C=C3C)o2)cc1` [NCGC00394182-01]: 6.68 µM. Next, `COc1ccccc1NS(=O)(=O)c1cc(NC(=O)c2cccc(S(=O)(=O)N(C)C)c2)ccc1N1CCOCC1` [MLS002162226-01]: 7.5 µM; `O=c1oc2ccccc2c(N2CCCCC2)c1CN1CCCC1` [MLS000525481-01]: 9.44 µM. Next, `CC1(c2ccccc2)N(Cc2ccccc2)C(=O)OC12CCN(Cc1cccnc1)CC2` (stereo not drawn) [NCGC00415410-01]: 15.3 µM. With `COC(=O)c1cnn(-c2ccc(C(=O)Nc3ccc(OC(F)(F)F)cc3)cc2)c1N` [NCGC00137710-01], the AC50 turned out to be 4.73 µM.

As to `Cc1cc(OC(C)C(=O)NCCc2c[nH]c3ccccc23)c2c(C)cc(=O)oc2c1` (stereo not drawn) [MLS001158613-01], the AC50 stood at 2.66 µM. For `O=C1CC(c2ccccc2)N(Cc2ccncc2)CCCN([S+](=O)([O-])c2cccs2)CCN1` (stereo not drawn) [NCGC00467201-01] the value was 6.68 µM. Next, `Cc1nc(CN2C(=O)OC3(CCN(C(=O)c4ccc(Oc5ccccc5)cc4)CC3)C2(C)c2ccccc2)cs1` (stereo not drawn) [NCGC00415614-01]: 13.3 µM.

As for `COCCc1nn2c(=O)cc(COC(=O)C(c3ccccc3)c3ccccc3)nc2s1` [NCGC00129785-01], the AC50 stood at 2.66 µM. As for `O=C(c1ccc2c(c1)OCO2)N1CCC2(CC1)COc1ccccc1CN2` [NCGC00477555-01], the AC50 was 5.31 µM.

Consider `CCOC(=O)N1CCN(C(=O)c2ccc3c(c2)N(C)C(=O)/C(=C\c2ccc(OCC)c(OC)c2)S3)CC1` [MLS001030648-01], for which the AC50 turned out to be 6.68 µM. Next, `COc1ccc(C2=C(C(C)=O)Sc3nnc(-c4ccc(Cl)cc4)n3N2C(C)=O)cc1OC` [NCGC00137262-01]: 3.76 µM; `CCOc1ccccc1C(=O)N1CCN(C(=O)c2nnn3c2COC(c2ccccc2)C3)CC1` (stereo not drawn) [NCGC00449179-01]: 16.8 µM; `Fc1ccccc1CN1CCC[C@H]1c1nc(-c2ccnc(N3CCOCC3)c2)no1` [NCGC00395913-01]: 15.3 µM. With `Cc1noc(C)c1-c1nccc2c(=O)cc(N(C)c3ccccc3)oc12` [NCGC00416678-01], the AC50 was 17.2 µM.

Turning to `CCc1nc(NC(=O)C2c3ccccc3C(=O)N(CCOC)C23CCCC3)sc1C` (stereo not drawn) [NCGC00423528-01], the AC50 is 5.96 µM. In the case of `CCn1ncc(CN2CCCC23CCN(c2cc(C)nc4ccccc24)CC3)c1C` [NCGC00442843-01], the AC50 came out at 5.31 µM. For `Cc1ccc(O)c(CN2CCCC(c3nc(CC(C)C)no3)C2)c1` (stereo not drawn) [NCGC00443337-01] the value was 9.44 µM; for `Cc1ccccc1Nc1nc(-c2cccnc2)cs1` [MLS001206645-01], 9.44 µM. For `O=C(Cn1c(=O)n(Cc2ccc(C(=O)NCc3ccc4c(c3)OCO4)cc2)c(=O)c2ccccc21)Nc1cccc(Cl)c1` [NCGC00106483-01], the AC50 is 5.96 µM.

`CCn1c(=O)c2cc(C(=O)N(CC(C)C)CC(C)C)sc2c2ccccc21` [NCGC00110427-01]: the AC50 amounted to 10.6 µM.

For the compound `Cn1cccc1CN1CCC(N2CC(OCC3CC3)C23CCCCC3)CC1` (stereo not drawn) [NCGC00463411-01], the AC50 was determined as 7.5 µM. For `Cc1cccc(Cn2nnc3c(O)nc(C4CCCN(C(=O)c5ccc(C(C)(C)C)cc5)C4)nc32)c1` (stereo not drawn) [NCGC00116091-01] the value was 2.66 µM; for `COc1ncccc1-c1nc(-c2c(C)noc2C)cc2c1cc(-c1ccccc1)n2C` [NCGC00417163-01], 13.7 µM; for `CC(C)(C)n1[nH]c2c3c(ccc2c1=O)C(=O)c1ccccc1C3=O` [MLS000530323-01], 4.73 µM. For `CCOc1ccc(NC(=O)c2cnn3c2NC(c2cccc(OC)c2)=CC3c2ccccc2)cc1` (stereo not drawn) [NCGC00121753-01] the value was 4.73 µM; for `COc1ccc(-n2nc(C(=O)NCCc3ccc(OC)c(OC)c3)c3c4ccccc4n(C)c3c2=O)cc1Cl` [NCGC00108876-01], 2.99 µM; for `O=C(NCC1CCCN(Cc2cccc(-c3ccco3)c2)C1)c1cccs1` (stereo not drawn) [NCGC00427501-01], 6.68 µM. Next, `COc1cccc(/C=C/C(=O)Nc2ccc3nc(N4CCN(C)CC4)cc(C)c3c2)c1OC` [NCGC00104449-01]: 5.96 µM; `COc1ccc(CC(=O)N2CCC(Oc3ncccc3C(=O)N3CCCCC3)C2)cc1` (stereo not drawn) [NCGC00434230-01]: 9.44 µM; `CCOc1ccccc1C(=O)N1CC(=O)Nc2ccc(Cl)cc2C1c1ccccc1` (stereo not drawn) [NCGC00103922-01]: 9.44 µM.

For the compound `CCNc1nc(NC(C)CC)nc(ON=C(C)C)n1` (stereo not drawn) [MLS000856336-01], the AC50 was 8.41 µM.

For `Oc1ccccc1C1=NN(c2ccccc2)C(c2ccccc2)C1` (stereo not drawn) [MLS001163829-01], the AC50 stood at 7.5 µM. Next, `CC(C)Oc1ccc(C(=O)Nc2ccc3oc(-c4ccncc4)nc3c2)cc1` [NCGC00098730-01]: 8.41 µM; `COCC1CN(Cc2cc(F)cc(Br)c2)CC12CCNCC2` (stereo not drawn) [NCGC00461842-01]: 9.44 µM; `CCCc1nn2c(=O)cc(COC(=O)c3cccc(NC(=O)COc4ccccc4C)c3)nc2s1` [NCGC00130805-01]: 13.3 µM.

Take `Cc1ccc(C)c(NC(=O)CN(C)C(=O)c2cc3ccccc3o2)c1` [MLS000770584-01]: the AC50 is 13.3 µM. Take `CCOc1ccccc1CN1CCC2(CCN(CCC(C)C)CC2)Oc2ccccc21` [NCGC00478188-01]: the AC50 was found to be 3.35 µM.

Regarding `O=C(Nc1ccc(C(=O)OC[C@@H]2CCCN3CCCC[C@H]23)cc1)c1cccc(Br)c1` [MLS000700112-01], the AC50 was 6.68 µM.

In the case of `CC(C(=O)NC1CCCC1)N1CCN(S(=O)(=O)c2ccc(C(C)(C)C)cc2)CC1` (stereo not drawn) [MLS002169740-01], the AC50 was 8.41 µM. `Cc1cccc(OCC(=O)NCC2(N3CCN(C)CC3)CCCCC2)c1C` [NCGC00118605-01]: the AC50 is 6.68 µM. As to `CCn1ccc2ccc(CN3CCCC(O)(CN4CCCC4)C3)cc21` (stereo not drawn) [NCGC00441341-01], the AC50 is 7.5 µM. Next, `CN(C)CCNCc1ccc(-c2ccccc2)o1` [NCGC00326685-02]: 10.6 µM; `CCOc1c(Cl)cc(CNC(C)C(O)c2ccccc2)cc1OC` (stereo not drawn) [MLS000679789-01]: 6.68 µM; `Oc1ccc(-c2nc(C3CC3)nc3c2CN(CC2CCCCC2)CC3)cc1` [NCGC00480438-01]: 6.68 µM. Consider `CCOC(=O)C1(Cc2cccc(Cl)c2)CCCNC1` (stereo not drawn) [NCGC00430131-01], for which the AC50 is 8.41 µM. For `CCn1cc(CN2CCC(N3CC(OCC4CC4)C34CCCCC4)CC2)cn1` (stereo not drawn) [NCGC00463414-01] the value was 8.41 µM; for `CCc1cc(C(=O)OC)c(NC(=O)CN2CCN(C(=O)c3ccco3)CC2)s1` [MLS001034503-01], 5.96 µM. Take `O=C1CC2(CCN(CC3CCCCC3)CC2)Oc2cc(Cl)ccc21` [NCGC00476867-01]: the AC50 is 1.5 µM. For `Cc1nn(C(=N)S)c(O)c1C(c1ccccc1)C(C#N)C#N` (stereo not drawn) [MLS000077118-01], the AC50 stood at 6.68 µM.
